Assay type in all cases: cell-based
In one test the test system is IL-8. In words: IL-8 levels in human IPF-PCLS culture supernatants (MSD multiplex ELISA). To be noted: single treatment, any concentration tested. The procedure: (§1) PCLS preparation and culture: PCLS were prepared from a single explanted human IPF lung and rested for 48 hrs to allow the post-slicing stress period to elapse before experiments began. PCLS were subsequently incubated with vehicle (0.1% DMSO), tranilast as a 1:1 l-lysine tranilast salt at 2 escalating concentrations (31.25 μM, 125 μM), pirfenidone at 3 escalating concentrations (0.25 mM, 1 mM, 2.5 mM) or nintedanib at 3 escalating concentrations (0.25 μM, 1 μM, 2.5 μM) in the presence or absence of Tranilast at 2 escalating concentrations (31.25 μM, 125 μM) for a further 96 hrs. PCLS culture media and all compounds were refreshed at 24 hrs intervals. All PCLS were harvested at 144 hrs.
(§2) Experimental groups: Twenty-one (21) different groups with n=6 human PCLS (total n=126 per lung) were investigated as shown in Table 4 below. PCLS were prepared from n=1 individual human IPF lungs.
(§3) PCLS Treatments and Media Collections: PCLS were incubated for a 48 hr rest period. […]
(§4) PCLS harvest: Cell culture supernatant (n=6 per group) were collected every 24 hrs and snap frozen for quantification of inflammatory cytokines and soluble ECM proteins. At harvest, PCLS (n=6 per group) and cell culture media (n=6 per group) were snap frozen for quantification of inflammatory cytokines and soluble ECM proteins.
(§5) Soluble outputs analysis: Anti-inflammatory potential was assessed by determining the levels of the inflammation markers MCP-1, IL-6, GMCSF, IL-8, and IL-1β in the tissue culture supernatants experiment (n=213 samples (n=630 samples; n=126 at 48 hrs, 72 hrs, 96 hrs, 120 hrs and 144 hrs) were quantified using a MSD multiplex ELISA (MesoScaleDiscovery). Anti-fibrotic potential was assessed by determining the levels of the fibrosis markers Collagen-1a1, TIMP1, and Fibronectin in the tissue culture supernatants (n=630 samples as above) were quantified using a single-plex ELISA (R&D). Summary data for all inflammatory markers and fibrotic markers in PCLS treated with pirfenidone (FIGS. 1a and 1b) or nintedanib (FIGS. 2a and 2b) in the presence or absence of Tranilast at 144 hrs only. […]
In general terms: ELISA stands for enzyme-linked immunosorbent assay.

Another test has as its system Collagen-1a1. The test can be described thus: Collagen 1a1 levels in human IPF-PCLS culture supernatants (single-plex ELISA). Particulars: for Col1A1: after 4-day dosing; for Collagen 1a1 secretion: single treatment. Here is the method: as §1, §2
(§6) PCLS Treatments and Media Collections: PCLS were incubated for a 48 hr rest period. Post-rest, PCLS were incubated for a further 96 hrs in the presence or absence of inhibitors as outlined above. PCLS culture media, including all compounds, were refreshed and harvested at 24 hrs intervals from 48 hrs. All PCLS were harvested at 144 hrs.
as §4
(§7) Soluble outputs analysis: Anti-inflammatory potential was assessed by determining the levels of the inflammation markers MCP-1, IL-6, GMCSF, IL-8, and IL-1β in the tissue culture supernatants experiment (n=213 samples (n=630 samples; n=126 at 48 hrs, 72 hrs, 96 hrs, 120 hrs and 144 hrs) were quantified using a MSD multiplex ELISA (MesoScaleDiscovery). Anti-fibrotic potential was assessed by determining the levels of the fibrosis markers Collagen-1a1, TIMP1, and Fibronectin in the tissue culture supernatants (n=630 samples as above) were quantified using a single-plex ELISA (R&D). Summary data for all inflammatory markers and fibrotic markers in PCLS treated with pirfenidone (FIGS. 1a and 1b) or nintedanib (FIGS. 2a and 2b) in the presence or absence of Tranilast at 144 hrs only. Graphs are represented by n=6 tissue culture media per condition, per time point. Data is presented as mean±SEM with individual values per tissue culture media.

The test system of the next test is MCP-1. In words: MCP-1 levels in human IPF-PCLS culture supernatants (MSD multiplex ELISA). To be noted: for MCP-1: after 4-day dosing; for MCP-1 secretion: any concentration tested, human IPF PCLS supernatant. The procedure:
as §1, §2, §6, §4, §7

A further test relates to IL-6. The test can be described thus: IL-6 levels in human IPF-PCLS culture supernatants (MSD multiplex ELISA). Particulars: single treatment, any concentration tested. Here is the method:
as §1, §2, §3, §4, §5

Another test has as its system Fibronectin. In words: Fibronectin levels in human IPF-PCLS culture supernatants (single-plex ELISA). To be noted: single treatment, high concentration, at 144 hrs. The procedure: as §1, §2, §3
PCLS harvest: Cell culture supernatant (n=6 per group) were collected every 24 hrs and snap frozen for quantification of inflammatory cytokines and soluble ECM proteins. At harvest, PCLS (n=6 per group) and cell culture media (n=6 per group) were snap frozen for quantification of inflammatory cytokines and soluble ECM proteins. […]

Where [1] appears, read: suboptimal concentrations alone.
The mark [2] stands for this setting: alone (suboptimal / ineffective concentration).

SMILES strings stand for the structures. “Also recorded” adds a separate entry of the source.

Regarding `COc1ccc(/C=C/C(=O)Nc2ccccc2C(=O)O)cc1OC` [tranilast, 2-[[3-(3,4-dimethoxyphenyl)-1-oxo-2-propenyl]amino]benzoic acid], the IL-8 secretion result with IL-8 is on record as “little to no effect”. For the same compound, the Col1A1 result in the test with Collagen-1a1 (setting [1]) is “minimal effect”. Besides, in the test on Collagen-1a1 (high concentration), the “Collagen 1a1 secretion” value is listed as “marginally reduced”. In the test with MCP-1 (setting [2]), the MCP-1 entry is reported as “minimal effect; also recorded: neither nintedanib (Nin) nor tranilast (TL) alone effected”. Also, in the test on MCP-1 (single treatment, high concentration), the MCP-1 levels result was “marginally reduced”. The IL-6 secretion result in the test on IL-6 was “Little to no effect”.
As to `COC(=O)c1ccc2c(c1)NC(=O)/C2=C(\Nc1ccc(N(C)C(=O)CN2CCN(C)CC2)cc1)c1ccccc1` [nintedanib], in the test with IL-8, the IL-8 secretion result was “little to no effect”. The “Collagen 1a1 secretion” value in the test on Collagen-1a1 (any concentration tested) is “little to no effect”. In the test on MCP-1 (setting [2]), the MCP-1 result is “no effect; also recorded: neither nintedanib (Nin) nor tranilast (TL) alone effected”. Further, in the test with MCP-1 (single treatment), the MCP-1 secretion result is “little to no effect”. Moreover, the IL-6 secretion entry in the test on IL-6 was “Little to no effect”.
As to `Cc1ccc(=O)n(-c2ccccc2)c1` [pirfenidone], the IL-8 secretion result in the test on IL-8 is “concentration dependently attenuated”. In addition, in the test on Fibronectin, the Fibronectin secretion result is reported as “attenuation”. Further, the Col1A1 result is reported as “strongly inhibited” in the test on Collagen-1a1 (high concentration alone) and “minimal effect” with Collagen-1a1 (setting [1]). Also, the “Collagen 1a1 secretion” value in the test on Collagen-1a1 (any concentration tested) is recorded as “concentration dependently attenuated”. Further, the figures for the MCP-1 entry in the test with MCP-1 (setting [2]) and with MCP-1 (high concentration alone) were “minimal effect” and “strongly inhibited”, respectively. For the same compound, the MCP-1 secretion result with MCP-1 (single treatment) is recorded as “concentration dependently attenuated”. In the test with IL-6, the IL-6 secretion entry is listed as “Little to no effect”.

Values taken from US20250161250A1, “COMPOSITIONS AND METHODS FOR TREATMENT OF IDIOPATHIC PULMONARY FIBROSIS” (NUFORMIX TECHNOLOGIES LIMITED, priority 2022, published 2025).
